Reference: ChEMBL document CHEMBL5532645, “Discovery of proteolysis-targeting chimera targeting undruggable proteins using a covalent ligand screening approach” (Eur J Med Chem, 2024)
Blank lines part the entries; values can stand above or below the compound they belong to. Active and inactive are the calls of the source. No cut-off for these calls is given here.

Assays:
[1] = target: T1, Protein cereblon/E3 ubiquitin-protein ligase Mdm2 (Homo sapiens) (UniProt Q00987+Q96SW2); assay: PROTAC activity at CRBN/MDM2 in human HEK293 cells assessed as induction of MDM2 degradation at 3 to 10 uM; format: cell-based; conditions: dose 3-10 µM
T1 sequence (Q00987 whole entry, looked up): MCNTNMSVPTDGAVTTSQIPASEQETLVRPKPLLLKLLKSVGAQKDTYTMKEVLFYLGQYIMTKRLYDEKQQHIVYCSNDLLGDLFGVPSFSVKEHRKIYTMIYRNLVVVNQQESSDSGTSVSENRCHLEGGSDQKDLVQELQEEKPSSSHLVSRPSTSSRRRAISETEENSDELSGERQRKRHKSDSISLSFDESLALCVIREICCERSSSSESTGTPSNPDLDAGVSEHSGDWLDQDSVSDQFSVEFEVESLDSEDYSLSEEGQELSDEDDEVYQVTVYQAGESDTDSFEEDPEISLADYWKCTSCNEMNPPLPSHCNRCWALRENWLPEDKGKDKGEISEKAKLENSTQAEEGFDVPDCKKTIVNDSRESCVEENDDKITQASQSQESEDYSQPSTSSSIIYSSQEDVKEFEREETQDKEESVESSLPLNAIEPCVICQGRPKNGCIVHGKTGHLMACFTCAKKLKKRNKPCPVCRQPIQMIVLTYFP
T1 sequence (Q96SW2 whole entry, looked up): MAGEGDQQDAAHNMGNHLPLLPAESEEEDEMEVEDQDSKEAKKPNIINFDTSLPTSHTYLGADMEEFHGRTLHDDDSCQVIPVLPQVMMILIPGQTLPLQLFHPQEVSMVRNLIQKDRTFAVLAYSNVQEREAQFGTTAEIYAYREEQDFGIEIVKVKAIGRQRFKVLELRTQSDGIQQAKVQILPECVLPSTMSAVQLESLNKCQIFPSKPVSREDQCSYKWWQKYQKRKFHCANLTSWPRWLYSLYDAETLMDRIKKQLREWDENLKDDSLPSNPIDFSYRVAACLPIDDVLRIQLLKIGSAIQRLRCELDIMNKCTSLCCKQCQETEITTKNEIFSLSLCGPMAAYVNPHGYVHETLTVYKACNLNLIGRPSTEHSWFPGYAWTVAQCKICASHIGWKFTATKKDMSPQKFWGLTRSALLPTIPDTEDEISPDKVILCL

[2] = target: T1, Protein cereblon/E3 ubiquitin-protein ligase Mdm2 (Homo sapiens); assay: PROTAC activity at CRBN/MDM2 in human HEK293 cells at 30 uM measured after 24 hrs Western blot analysis relative to control; format: cell-based
[3] = target: T1, Protein cereblon/E3 ubiquitin-protein ligase Mdm2 (Homo sapiens); assay: PROTAC activity at CRBN/MDM2 in human HEK293 cells assessed as induction of MDM2 degradation measured after 24 hrs by Western blot analysis; format: cell-based; conditions: dose 3-30 µM
[4] = target: T1, Protein cereblon/E3 ubiquitin-protein ligase Mdm2 (Homo sapiens); assay: PROTAC activity at CRBN/MDM2 in human HEK293 cells assessed as induction of MDM2 degradation at 30 uM by Western blot analysis; format: cell-based; conditions: time 2-24 hrs, TDE = time-dependent effect
[5] = target: T1, Protein cereblon/E3 ubiquitin-protein ligase Mdm2 (Homo sapiens); assay: PROTAC activity at CRBN/MDM2 in human HEK293 cells at 3 to 10 uM preincubated with MG132 for 4 hrs followed by compound addition and measured after 20 hrs by Western blot analysis; format: cell-based; conditions: dose 3-10 µM
[6] = target: T1, Protein cereblon/E3 ubiquitin-protein ligase Mdm2 (Homo sapiens); assay: PROTAC activity at CRBN/MDM2 in human HEK293 cells at 3 to 10 uM preincubated with MLN4924 for 4 hrs followed by compound addition and measured after 20 hrs by Western blot analysis; format: cell-based; conditions: dose 3-10 µM
[7] = target: T1, Protein cereblon/E3 ubiquitin-protein ligase Mdm2 (Homo sapiens); assay: PROTAC activity at CRBN/MDM2 in human HEK293 cells assessed as maximum degradation at 10 uM measured after 24 to 48 hrs by Western blot analysis; format: cell-based; conditions: time 24-48 hrs
[8] = target: T1, Protein cereblon/E3 ubiquitin-protein ligase Mdm2 (Homo sapiens); assay: PROTAC activity at CRBN/MDM2 in human HEK293 cells assessed as increase in MDM2 expression at 30 uM measured after 6 hrs by Western blot analysis; format: cell-based
[9] = target: T1, Protein cereblon/E3 ubiquitin-protein ligase Mdm2 (Homo sapiens); assay: PROTAC activity at CRBN/MDM2 in human HEK293 cells assessed as induction of MDM2 degradation at 30 uM measured after 2 hrs by Western blot analysis; format: cell-based
[10] = target: T1, Protein cereblon/E3 ubiquitin-protein ligase Mdm2 (Homo sapiens); assay: PROTAC activity at CRBN/MDM2 in human HEK293 cells assessed as induction of MDM2 degradation at 30 uM measured after 24 hrs by Western blot analysis; format: cell-based
HEK293 = assay: Cytotoxicity against HEK293 cells assessed as cell viability at 0.3 uM incubated for 24 hrs by cell counting kit 8 method; format: toxicity, cell-based; conditions: human, hek293, 24 h

SMILES: CN1C(=O)CCC(N2C(=O)c3cccc(NCCOCCC(=O)N(C)C(c4ccc(F)cc4)c4cccnc4)c3C2=O)C1=O (stereo not given)
Activity [1]: inactive | Emax [2]: inactive

SMILES: CN(C(=O)CCOCCNc1cccc2c1C(=O)N(C1CCC(=O)NC1=O)C2=O)C(c1ccc(F)cc1)c1cccnc1 (stereo not given)
Activity [3]: Dose-Dependent Effect | Activity [4]: Tde | Activity [5]: inactive | Activity [6]: inactive | Activity [1]: Active | Emax [2]: 31.2% | Activity [7]: Active

SMILES: O=C1CCC(N2C(=O)c3ccc(NCCOCCOCCC(=O)N4CCN(c5nccc(C(F)(F)F)n5)CC4)cc3C2=O)C(=O)N1 (stereo not given)
Activity [8]: Active | Activity [9]: Active | Activity [10]: inactive | Emax [2]: 31.5%

SMILES: NS(=O)(=O)OC[C@@H]1C[C@@H](n2ccc3c(N[C@H]4CCc5ccccc54)ncnc32)C[C@@H]1O [PEVONEDISTAT]
Activity (HEK293): Non-Toxic

SMILES: CN(C(=O)CCOCCOCCOCCOCCNc1cccc2c1C(=O)N(C1CCC(=O)NC1=O)C2=O)C(c1ccc(F)cc1)c1cccnc1 (stereo not given)
Emax [2]: 5.5%

The next lines start with the values.

Emax [2]: 26.5%
SMILES: CN(C(=O)CCOCCOCCNc1cccc2c1C(=O)N(C1CCC(=O)NC1=O)C2=O)C(c1ccc(F)cc1)c1cccnc1 (stereo not given)

Activity [8]: Active | Emax [2]: 28.3%
SMILES: O=C1CCC(N2C(=O)c3cccc(NCCOCCOCCC(=O)N4CCOC(c5cccc(OC(F)F)c5)C4)c3C2=O)C(=O)N1 (stereo not given)

Emax [2]: 23.2%
SMILES: O=C1CCC(N2C(=O)c3ccc(NCCOCCC(=O)N4CCOC(c5cccc(OC(F)F)c5)C4)cc3C2=O)C(=O)N1 (stereo not given)

Emax [2]: 5.6%
SMILES: CN(C(=O)CCOCCOCCOCCNc1cccc2c1C(=O)N(C1CCC(=O)NC1=O)C2=O)C(c1ccc(F)cc1)c1cccnc1 (stereo not given)
